HELM strings list units from the 5' end as sugar, base in round brackets, then linkage (d deoxyribose, r ribose, m 2'-O-methyl, p phosphodiester). Strings are as the collection lists them; they lack the last nucleoside at the 3' end of the tested compound. [moe] = 2'-O-(2-methoxyethyl) (MOE); [sp] = phosphorothioate linkage; [m5C] = 5-methylcytosine
Target: C9ORF72
Assay: mouse, dose not given
Conditions: ASO

Point of comparison: “RNA1{[moe](T)[sp].[moe](A)[sp].[moe]([m5C])[sp].[moe](A)[sp].[moe](G)[sp].d(G)[sp].d([m5C])[sp].d(T)[sp].d(G)[sp].d([m5C])[sp].d(G)[sp].d(G)[sp].d(T)[sp].d(T)[sp].d(G)[sp].[moe](T)[sp].[moe](T)[sp].[moe](T)[sp].[moe]([m5C])}$$$$ (last 3' nucleoside missing)”, 3 h FOB score 7 score 0-7. Against it:
- RNA1{[moe](G)[sp].[moe]([m5C])[sp].[moe]([m5C])[sp].[moe](T)[sp].[moe](T)[sp].d(A)[sp].d([m5C])[sp].d(T)[sp].d([m5C])[sp].d(T)[sp].d(A)[sp].d(G)[sp].d(G)[sp].d(A)[sp].d([m5C])[sp].[moe]([m5C])[sp].[moe](A)[sp].[moe](A)[sp].[moe](G)}$$$$ (last 3' nucleoside missing) — the same, 7 score 0-7
- RNA1{[moe](G)[sp].[moe]([m5C])p.[moe](T)p.[moe](G)[sp].d([m5C])[sp].d(G)[sp].d(G)[sp].d(T)[sp].d(T)[sp].d(G)[sp].d(T)[sp].d(T)[sp].[moe](T)p.[moe]([m5C])p.[moe]([m5C])p.[moe]([m5C])[sp].[moe](T)}$$$$ (last 3' nucleoside missing) — lower, 5 score 0-7
- RNA1{[moe](G)[sp].[moe]([m5C])p.[moe](T)p.[moe](G)p.[moe]([m5C])p.[moe](G)[sp].d(G)[sp].d(T)[sp].d(T)[sp].d(G)[sp].d(T)[sp].d(T)[sp].d(T)[sp].d([m5C])[sp].[moe]([m5C])p.[moe]([m5C])[sp].[moe](T)}$$$$ (last 3' nucleoside missing) — lower, 5.5 score 0-7
- RNA1{[moe](G)[sp].[moe]([m5C])p.[moe]([m5C])[sp].d(T)[sp].d(T)[sp].d(A)[sp].d([m5C])[sp].d(T)[sp].d([m5C])[sp].d(T)[sp].d(A)[sp].[moe](G)p.[moe](G)p.[moe](A)p.[moe]([m5C])p.[moe]([m5C])[sp].[moe](A)}$$$$ (last 3' nucleoside missing) — lower, 1.25 score 0-7
- RNA1{[moe](G)[sp].[moe]([m5C])p.[moe]([m5C])p.[moe](T)[sp].d(T)[sp].d(A)[sp].d([m5C])[sp].d(T)[sp].d([m5C])[sp].d(T)[sp].d(A)[sp].d(G)[sp].[moe](G)p.[moe](A)p.[moe]([m5C])p.[moe]([m5C])[sp].[moe](A)}$$$$ (last 3' nucleoside missing) — lower, 0.25 score 0-7
- RNA1{[moe](G)[sp].[moe]([m5C])p.[moe]([m5C])p.[moe](T)p.[moe](T)p.[moe](A)[sp].d([m5C])[sp].d(T)[sp].d([m5C])[sp].d(T)[sp].d(A)[sp].d(G)[sp].d(G)[sp].d(A)[sp].[moe]([m5C])p.[moe]([m5C])[sp].[moe](A)}$$$$ (last 3' nucleoside missing) — lower, 1 score 0-7
- RNA1{[moe](G)[sp].[moe]([m5C])p.[moe]([m5C])p.[moe](T)p.[moe](T)p.[moe](A)p.[moe]([m5C])[sp].d(T)[sp].d([m5C])[sp].d(T)[sp].d(A)[sp].d(G)[sp].d(G)[sp].d(A)[sp].d([m5C])[sp].[moe]([m5C])[sp].[moe](A)}$$$$ (last 3' nucleoside missing) — lower, 2.5 score 0-7
- RNA1{[moe](G)[sp].[moe]([m5C])p.[moe]([m5C])p.[moe](T)p.[moe](T)p.[moe](A)p.[moe]([m5C])p.d(T)[sp].d([m5C])[sp].d(T)[sp].d(A)[sp].d(G)[sp].d(G)[sp].d(A)[sp].d([m5C])[sp].d([m5C])[sp].d(A)[sp].[moe](A)[sp].[moe](G)}$$$$ (last 3' nucleoside missing) — lower, 3.25 score 0-7
- RNA1{[moe](G)[sp].[moe]([m5C])p.[moe]([m5C])p.[moe](T)p.[moe](T)p.[moe](A)p.d([m5C])[sp].d(T)[sp].d([m5C])[sp].d(T)[sp].d(A)[sp].d(G)[sp].d(G)[sp].d(A)[sp].d([m5C])[sp].d([m5C])[sp].[moe](A)p.[moe](A)[sp].[moe](G)}$$$$ (last 3' nucleoside missing) — lower, 2.25 score 0-7
- RNA1{[moe](G)[sp].[moe]([m5C])p.[moe]([m5C])p.[moe](T)p.d(T)[sp].d(A)[sp].d([m5C])[sp].d(T)[sp].d([m5C])[sp].d(T)[sp].d(A)[sp].d(G)[sp].d(G)[sp].d(A)[sp].[moe]([m5C])p.[moe]([m5C])p.[moe](A)p.[moe](A)[sp].[moe](G)}$$$$ (last 3' nucleoside missing) — lower, 5.75 score 0-7
- RNA1{[moe](G)[sp].[moe]([m5C])p.[moe]([m5C])p.[moe]([m5C])[sp].d([m5C])[sp].d(T)[sp].d(A)[sp].d(G)[sp].d([m5C])[sp].d(G)[sp].d([m5C])[sp].d(G)[sp].[moe]([m5C])p.[moe](G)p.[moe](A)p.[moe]([m5C])[sp].[moe](T)}$$$$ (last 3' nucleoside missing) — lower, 1.5 score 0-7
- RNA1{[moe](G)[sp].[moe]([m5C])p.[moe]([m5C])p.[moe]([m5C])p.[moe]([m5C])p.[moe](T)[sp].d(A)[sp].d(G)[sp].d([m5C])[sp].d(G)[sp].d([m5C])[sp].d(G)[sp].d([m5C])[sp].d(G)[sp].[moe](A)p.[moe]([m5C])[sp].[moe](T)}$$$$ (last 3' nucleoside missing) — lower, 1 score 0-7
- RNA1{[moe](G)[sp].[moe]([m5C])p.[moe]([m5C])p.[moe]([m5C])p.[moe]([m5C])p.[moe](T)p.d(A)[sp].d(G)[sp].d([m5C])[sp].d(G)[sp].d([m5C])[sp].d(G)[sp].d([m5C])[sp].d(G)[sp].d(A)[sp].d([m5C])[sp].[moe](T)p.[moe]([m5C])[sp].[moe]([m5C])}$$$$ (last 3' nucleoside missing) — lower, 0 score 0-7
- RNA1{[moe](G)[sp].[moe]([m5C])p.[moe]([m5C])p.[moe]([m5C])p.d([m5C])[sp].d(T)[sp].d(A)[sp].d(G)[sp].d([m5C])[sp].d(G)[sp].d([m5C])[sp].d(G)[sp].d([m5C])[sp].d(G)[sp].[moe](A)p.[moe]([m5C])p.[moe](T)p.[moe]([m5C])[sp].[moe]([m5C])}$$$$ (last 3' nucleoside missing) — lower, 1.25 score 0-7
- RNA1{[moe](G)[sp].[moe]([m5C])p.[moe]([m5C])p.d(T)[sp].d(T)[sp].d(A)[sp].d([m5C])[sp].d(T)[sp].d([m5C])[sp].d(T)[sp].d(A)[sp].d(G)[sp].d(G)[sp].[moe](A)p.[moe]([m5C])p.[moe]([m5C])p.[moe](A)p.[moe](A)[sp].[moe](G)}$$$$ (last 3' nucleoside missing) — lower, 2 score 0-7
- RNA1{[moe](T)[sp].[moe](G)p.[moe](G)p.[moe](T)[sp].d(T)[sp].d(A)[sp].d(A)[sp].d(T)[sp].d([m5C])[sp].d(T)[sp].d(T)[sp].d(T)[sp].[moe](A)p.[moe](T)p.[moe]([m5C])p.[moe](A)[sp].[moe](G)}$$$$ (last 3' nucleoside missing) — lower, 3.25 score 0-7
- RNA1{[moe](T)[sp].[moe](G)p.[moe](G)p.[moe](T)p.[moe](T)p.[moe](A)[sp].d(A)[sp].d(T)[sp].d([m5C])[sp].d(T)[sp].d(T)[sp].d(T)[sp].d(A)[sp].d(T)[sp].[moe]([m5C])p.[moe](A)[sp].[moe](G)}$$$$ (last 3' nucleoside missing) — lower, 6.25 score 0-7
- RNA1{[moe](T)[sp].[moe](G)p.[moe](G)p.[moe](T)p.[moe](T)p.[moe](A)p.[moe](A)p.d(T)[sp].d([m5C])[sp].d(T)[sp].d(T)[sp].d(T)[sp].d(A)[sp].d(T)[sp].d([m5C])[sp].d(A)[sp].d(G)[sp].[moe](G)[sp].[moe](T)}$$$$ (last 3' nucleoside missing) — lower, 3.75 score 0-7
- RNA1{[moe](T)[sp].[moe](G)p.[moe](G)p.[moe](T)p.[moe](T)p.[moe](A)p.d(A)[sp].d(T)[sp].d([m5C])[sp].d(T)[sp].d(T)[sp].d(T)[sp].d(A)[sp].d(T)[sp].d([m5C])[sp].d(A)[sp].[moe](G)p.[moe](G)[sp].[moe](T)}$$$$ (last 3' nucleoside missing) — lower, 1 score 0-7
- RNA1{[moe](T)[sp].[moe](G)p.[moe](G)p.[moe](T)p.d(T)[sp].d(A)[sp].d(A)[sp].d(T)[sp].d([m5C])[sp].d(T)[sp].d(T)[sp].d(T)[sp].d(A)[sp].d(T)[sp].[moe]([m5C])p.[moe](A)p.[moe](G)p.[moe](G)[sp].[moe](T)}$$$$ (last 3' nucleoside missing) — lower, 1 score 0-7
- RNA1{[moe](T)[sp].[moe](G)p.[moe](G)p.d(T)[sp].d(T)[sp].d(A)[sp].d(A)[sp].d(T)[sp].d([m5C])[sp].d(T)[sp].d(T)[sp].d(T)[sp].d(A)[sp].[moe](T)p.[moe]([m5C])p.[moe](A)p.[moe](G)p.[moe](G)[sp].[moe](T)}$$$$ (last 3' nucleoside missing) — lower, 0.25 score 0-7
- RNA1{[moe](T)[sp].[moe]([m5C])p.[moe](T)[sp].d(G)[sp].d(T)[sp].d([m5C])[sp].d(T)[sp].d(T)[sp].d(T)[sp].d(G)[sp].d(G)[sp].[moe](A)p.[moe](G)p.[moe]([m5C])p.[moe]([m5C])p.[moe]([m5C])[sp].[moe](A)}$$$$ (last 3' nucleoside missing) — lower, 4 score 0-7
- RNA1{[moe](T)[sp].[moe]([m5C])p.[moe](T)p.[moe](G)[sp].d(T)[sp].d([m5C])[sp].d(T)[sp].d(T)[sp].d(T)[sp].d(G)[sp].d(G)[sp].d(A)[sp].[moe](G)p.[moe]([m5C])p.[moe]([m5C])p.[moe]([m5C])[sp].[moe](A)}$$$$ (last 3' nucleoside missing) — lower, 5.25 score 0-7
- RNA1{[moe](T)[sp].[moe]([m5C])p.[moe](T)p.[moe](G)p.[moe](T)p.[moe]([m5C])[sp].d(T)[sp].d(T)[sp].d(T)[sp].d(G)[sp].d(G)[sp].d(A)[sp].d(G)[sp].d([m5C])[sp].[moe]([m5C])p.[moe]([m5C])[sp].[moe](A)}$$$$ (last 3' nucleoside missing) — lower, 5.5 score 0-7
- RNA1{[moe](T)[sp].[moe]([m5C])p.[moe](T)p.[moe](G)p.[moe](T)p.[moe]([m5C])p.[moe](T)[sp].d(T)[sp].d(T)[sp].d(G)[sp].d(G)[sp].d(A)[sp].d(G)[sp].d([m5C])[sp].d([m5C])[sp].[moe]([m5C])[sp].[moe](A)}$$$$ (last 3' nucleoside missing) — lower, 6.25 score 0-7

— the OligoGym collection
